Results published in ChEMBL document CHEMBL3507680, “University of Dundee, Gates Library screen for HepG2 cell viability”.

Assay: Human HepG2 cell viability assay in 384 well format
Format: toxicity, cell-based
Set-up: dose 125 nL, time 70.5 hour; concentration not given beside the values
Details: HepG2 cells, read-out: Inhibition

SMILES	cytotoxicity at 70.5 h [%]
C[C@H]1C[C@H]2CN(C(=O)c3ccncn3)CC[C@@H]2O1	-19.6
O=C1COC2(CCN(S(=O)(=O)C3CC3)CC2)CN1c1ccsc1	-17.5
COCC1COCCC12CCN(C(=O)CCc1ccccc1C)CC2 (stereo unspecified)	-5.26
COCC1COCCC12CCN(C(=O)COc1ccccc1C)CC2 (stereo unspecified)	-2.98
c1cnc(N2CCC3(COCc4cnc(N5CCOCC5)nc43)C2)nc1 (stereo unspecified)	-16.6
CC(C)Nc1ccc2nc(C3CCNCC3)nn2c1	9.18
O=C(C1CC1)N1CCC2(COCc3cnc(N4CCOCC4)nc32)C1 (stereo unspecified)	-12.6
Cn1nnc2c1C(COCC1CC1)CN(C(=O)Cc1cccs1)C2 (stereo unspecified)	-19.3
CN(C)C(=O)C1OC2(CCN(C(=O)N(C)C)CC2)c2ccccc21 (stereo unspecified)	-19.3
CN(C)C(=O)C1OC2(CCN(C(=O)c3ccoc3)CC2)c2ccccc21 (stereo unspecified)	-14.7
COCC1CN(C(=O)Cc2cccs2)Cc2nnn(C)c21 (stereo unspecified)	-14.9
Cc1nc(N2CCCC2)nc2c1CCN(C(=O)NC(C)C)CC2	30.9
CC(C)NC(=O)c1cc2c(s1)CCN2C(=O)CN(C)C	-4.91
CC(C)NC(=O)C1CN(C(=O)Cc2ccccc2)CC12CCOCC2 (stereo unspecified)	-13.2
COc1ncccc1C(=O)N1CC[C@H]2C[C@@H](c3nccs3)O[C@@H]2C1	-23.1
O=C(c1ccccc1)N1CC[C@H]2C[C@@H](c3nccs3)O[C@@H]2C1	-17.1
CC(C)NC(=O)C1CN(C(=O)Cc2cccc(F)c2)CC12CCOCC2 (stereo unspecified)	10.1
CN(C)S(=O)(=O)N1C[C@H]2C[C@H](C(=O)Nc3ccccc3)[C@@H](C1)O2	-5.82
CC(C)CC(=O)N1CC[C@H]2C[C@H](c3nccs3)O[C@@H]2C1	2.63
Cc1nc(N2CCCC2)nc2c1CCN(C(=O)NC1CCCC1)CC2	1.4
O=C(Nc1ccccc1)[C@H]1C[C@@H]2CN(S(=O)(=O)c3ccccc3)C[C@H]1O2	-10.9
CCC1=N[C@@]2(CC[C@@H]3CN(CC(=O)N(C)C)C[C@@H]32)C(=O)N1CC(C)C	-6.91
Cc1cc(CN2CCC3(CC2)COC(COc2ccccn2)C3)no1 (stereo unspecified)	43

SMILES	cytotoxicity at 70.5 h [%]
c1cncc(CN2CCn3cc(Cn4cccn4)nc3C2)c1	-7.42
CNC(=O)[C@H]1C[C@@H]2CN(C(=O)Nc3ccccc3)C[C@H]1O2	-25.2
Cc1nc(CN2CC3(CCN(c4nccs4)C3)CC2=O)cs1 (stereo unspecified)	-1.92
CCNc1ncc2c(n1)CN(c1ccc(C)c(C)c1)C2=O	-11.2
CCNc1ncc2c(n1)CN(c1ccc(CC)cc1)C2=O	-8.79
Cc1nn(C)c2cnn(CCCNS(=O)(=O)Cc3ccccc3)c12	10.4
CC(C)(C)NC(=O)CCn1ncc2c(Cl)cccc21	-5.97
Cc1nn(C)c(C)c1CNC(=O)CCn1ncc2c(Cl)cccc21	-1.2
CCn1nc(C)c2ncnc(N3CCCC(C)C3)c21 (stereo unspecified)	8.26
CCn1cc(Cl)c(C(=O)Nc2ccc3c(c2)C(C)(C)C(=O)N3C)n1	-16.6
Cc1cc(NC(=O)CCn2nc(C)c3ccccc32)n(C(C)C)n1	-18
CCn1ccc(NC(=O)CN2C(=O)C(C)(C)c3ccccc32)n1	-11.1
CCCc1nc(NCCCn2cccn2)c2c(n1)c(C)nn2CC	-4.19
CCCc1nc(Nc2cccc(C(N)=O)c2)c2c(n1)c(C)nn2CC	-4.15
CCCc1nc(N2CCCC(C)C2)c2c(n1)c(C)nn2CC (stereo unspecified)	-4
CCCc1nc(N2CCCCC2)c2c(n1)c(C)nn2CC	15.4
Cc1nn(C)c2c(N3CCN(C)CC3)nc(C3CC3)nc12	-11.8
CC(C)(C)NC(=O)COc1ccc(CNCCOc2ccccn2)cc1	-2.01
CCCc1nc(NCCCn2ccnc2)c2c(n1)c(C)nn2CC	-11.1
CCn1nc(C)c2nc(C(C)C)nc(N3CCOCC3)c21	11.2
CCn1nc(C)c2nc(C(C)C)nc(NCCCn3ccnc3)c21	-17.9
CSc1ncnc(NCc2cccs2)c1C#N	-10.7
Cc1cccc2c1cnn2CCCNC(=O)c1ccnn1C	-12.7

SMILES	cytotoxicity at 70.5 h [%]
Cc1cccc2c1cnn2CCCNC(=O)C1CC1	-4.27
CCCC(=O)NCCCn1ncc2c(C)cccc21	-12.9
CCn1cc(NC(=O)C2CCC(=O)N2Cc2ccco2)cn1 (stereo unspecified)	-6.35
Cc1cc(C(=O)N(C)Cc2cccs2)nc(N2CCCCC2)n1	-6.38
CCN(CC)C(=O)c1nnsc1-c1ccccc1	-10.3
CN(C)CCCNC(=O)c1nnsc1-c1ccccc1	-8.68
CC(C)CNC(=O)c1nnsc1-c1ccccc1	-11.5
CCOc1cc(C(=O)N2CCOCC2)cc2occc12	22.3
CCOc1cc(C(=O)N2CCN(CC)CC2)cc2occc12	-3.29
CCN(CC)CCNS(=O)(=O)c1cccc(CSC)c1	-8.72
CCN(CC)c1nc(C)cc(C(=O)Nc2cnn(CC)c2)n1	-12.1
CCn1ccc(NC(=O)CCc2c(C)nn(C)c2C)n1	18.2
Cc1ccc(CN2C(=O)CCC2C(=O)Nc2cnn(C)c2)o1 (stereo unspecified)	-4.24
Cc1cc(C(=O)N(C)Cc2cccs2)nc(N2CCCC2)n1	-6.81
CCOCc1cccc(S(=O)(=O)Nc2ccn(CC)n2)c1	-0.0962
COc1cccc(CNCc2ccccc2Cl)c1O	26.4
COc1cccc(CNCc2ccc(F)c(Cl)c2)c1O	27
CCCn1cc(C(=O)n2nc(C)cc2C)c(S(=O)(=O)N2CCSCC2)n1	-7.23
O=C(NCCc1ccccn1)c1[nH]nc2c1CCCC2	3.78
CSc1ccc(-c2noc(CN(CC(C)C)CC(C)C)n2)cc1	-12.7
CSc1nc2ccsc2c(=O)n1CC(=O)NC1CCCC1	-6.44
CCc1cc(=O)n(CC(=O)N2CCCC2)c(-c2cccc(F)c2)n1	4.18
CCc1cc(=O)n(CC(=O)N2CCC(C)CC2)c(-c2cccc(F)c2)n1	-3.1

SMILES	cytotoxicity at 70.5 h [%]
CCc1cc(=O)n(CC(=O)NCC2CCCO2)c(-c2cccc(F)c2)n1 (stereo unspecified)	2.39
CCOC(=O)C1CCN(c2nccc(-n3nc(C)cc3C)n2)CC1	-3.45
O=C(c1nn[nH]c1Nc1ccc(Cl)cc1)N1CCCCCC1	-10.3
CC(C)N1CCN(C(=O)c2[nH]nnc2Nc2ccccc2F)CC1	16.4
O=C(c1nn[nH]c1Nc1cccc(Cl)c1)N1CCSCC1	26.2
Cc1cc(=O)n(CC(=O)NCC2CCCO2)c(-c2ccccc2)n1 (stereo unspecified)	2.72
COCCCNC(=O)Cn1c(-c2cccc(Cl)c2)nc(C)cc1=O	2.43
CCc1cc(=O)n(CC(=O)N2CCCC2)c(-c2ccccc2)n1	-5.29
Cc1nc(N2CCCCC2)ncc1-c1cc(O)nc(N2CCCCC2)n1	-0.353
CN(C)C(=O)CC1CC2(CCN(Cc3ccsc3)CC2)c2ccccc21 (stereo unspecified)	-16.8
Cn1cccc1C(=O)N1C[C@@H](OCc2ccncc2)[C@@H]2OCCC[C@@H]21	-1.09
O=C(NC[C@]12COC[C@H]1CN(Cc1ccco1)C2)c1ccccc1	-14.6
Cc1cccc(CN2CC[C@@H]3[C@@H]2CCN3C(=O)c2cc(C)oc2C)n1	13.1
O=C(C[C@@H]1COC[C@H]2CN(Cc3ccc(F)cc3)C[C@@H]12)N1CCCC1	2.93
COCC(=O)N1CCn2c(COc3cccnc3)cnc2C1C (stereo unspecified)	6.09
O=S(=O)(C1CC1)N1C[C@@H]2COC[C@]2(COc2ccccn2)C1	-18.1
CS(=O)(=O)N1C[C@H]2CCC[C@@]2(COc2ccccn2)C1	-16.1
CCS(=O)(=O)N1CCCC2(COCCN(c3ccccn3)C2)C1 (stereo unspecified)	-18.6
Cn1cc(N2CC3(CCN(Cc4ccccc4)CC3)OCC2=O)cn1	52.7
CC(C)NC(=O)C1CN(Cc2ccc(F)cc2)CC12CCOCC2 (stereo unspecified)	-10.5
Cn1cc(N2CC3(CCN(CC4CC4)CC3)OCC2=O)cn1	-12.5
COC[C@@H]1CCC[C@@]12CN(Cc1ccco1)CCO2	-15.7
Cc1nc(CN2CC3(CCN(c4cnccn4)C3)CC2=O)cs1 (stereo unspecified)	-10.3

SMILES	cytotoxicity at 70.5 h [%]
COCCN1CC[C@H](OC)[C@@H]1Cc1ccccc1	-0.421
CCC(CC)C(=O)N1CCOC2(COCCN(CC(=O)NC)C2)C1 (stereo unspecified)	-11.7
O=C(Cc1ccccn1)N1CCc2ncnc(NC3CCC3)c2CC1	-9.73
Cc1cccc(CN2C(=O)CO[C@@H]3CN(Cc4cnn(C)c4)C[C@H]32)c1	4.73
O=C1COC2(CCN(Cc3cccnc3)CC2)CN1	12.3
Cc1cccc(CN2CC[C@@H]3[C@@H]2CCN3C(=O)c2ccoc2C)n1	0.304
Cc1ccc2c(n1)N(CC1CC1)CCN(C(=O)c1ccncc1F)C2	0.364
CC(C)CN1CCN(C(=O)c2ccncc2F)Cc2cccnc21	-9.62
COC1COC2(CCN(Cc3ccc4ccccc4n3)CC2)C1 (stereo unspecified)	-12.9
Fc1cccnc1O[C@@H]1CN(Cc2ccco2)[C@@H]2CCCO[C@@H]21	-12.4
Cc1noc(C)c1CN1C[C@H](OCc2ccncc2)[C@H]2OCCC[C@H]21	-13.2
Cc1cnc(N2CCOCC3(CCN(c4ccccn4)C3)C2)nc1 (stereo unspecified)	-9.64
c1ccc(N2CCC3(COCCN(c4ncccn4)C3)C2)nc1 (stereo unspecified)	-10
Cn1cc(CN2C[C@@H]3COC[C@H](C(=O)Nc4cccnc4)[C@@H]3C2)cn1	44.2
CN(C)C(=O)CN1CCn2cc(Cn3cccn3)nc2C1	-10.4
c1ccc(CCN2CCn3cc(Cn4cccn4)nc3C2)cc1	-10.6
Cc1ccc(CN2CCc3onc(COc4cccnc4)c3C2)s1	-26.9
c1ccc(CO[C@H]2CO[C@@]3(CCCN(Cc4cccnc4)C3)C2)nc1	-24.8
COc1ncccc1CN1C[C@@H]2COC[C@]2(COc2ccccn2)C1	-20.4
